Source: patent US6960597B2, “Aza-bridged-bicyclic amino acid derivatives as α4 integrin antagonists” (Orth-McNeil Pharmaceutical, Inc., priority 2000, dated 2005)
Where two headings read alike, the source gives them in different places.

What was measured:
α4β1 integrin receptor = molecular target: T1, α4β1 integrin receptor (Homo sapiens, UniProt P05556+P13612); assay: Ramos Cell Adhesion Assay (α4β1 Mediated Adhesion/VCAM-1); assay type: cell-based
T1 construct: Ramos Cell Adhesion Assay (α4β1 Mediated Adhesion/VCAM-1); endogenous in cells; host or cells: Ramos cells
Method: Ramos Cell Adhesion Assay (α4β1 Mediated Adhesion/VCAM-1)
(§1) Immulon 96 well plates (Dynex) were coated with 100 μL recombinant hVCAM-1 at 4.0 μg/mL in 0.05 M NaCO3 buffer pH 9.0 overnight at 4° C. (R&D Systems). Plates were washed 3 times in PBS with 1% BSA and blocked for 1 h @ room temperature in this buffer. PBS was removed and compounds to be tested (50 μL) were added at 2× concentration. Ramos cells, (50 μL at 2×10^6/mL) labeled with 5 μM Calcein AM (Molecular Probes) for 1 h at 37° C., were added to each well and allowed to adhere for 1 h at room temperature. Plates were washed 3× in PBS+1% BSA and cells were lysed for 15 minutes in 100 μL of 1 M Tris pH 8.0 with 1% SDS. The plate was read at 485 nm excitation and 530 nm emission.

human α4β7 = molecular target: T2, human α4β7 (Homo sapiens, UniProt P13612+P26010); assay: α4β7-K562 Cell Adhesion Assay (α4β7 Mediated Adhesion/VCAM-1); assay type: cell-based
T2 construct: expressed in transfected cells
T2 sequence (P13612 34-1032): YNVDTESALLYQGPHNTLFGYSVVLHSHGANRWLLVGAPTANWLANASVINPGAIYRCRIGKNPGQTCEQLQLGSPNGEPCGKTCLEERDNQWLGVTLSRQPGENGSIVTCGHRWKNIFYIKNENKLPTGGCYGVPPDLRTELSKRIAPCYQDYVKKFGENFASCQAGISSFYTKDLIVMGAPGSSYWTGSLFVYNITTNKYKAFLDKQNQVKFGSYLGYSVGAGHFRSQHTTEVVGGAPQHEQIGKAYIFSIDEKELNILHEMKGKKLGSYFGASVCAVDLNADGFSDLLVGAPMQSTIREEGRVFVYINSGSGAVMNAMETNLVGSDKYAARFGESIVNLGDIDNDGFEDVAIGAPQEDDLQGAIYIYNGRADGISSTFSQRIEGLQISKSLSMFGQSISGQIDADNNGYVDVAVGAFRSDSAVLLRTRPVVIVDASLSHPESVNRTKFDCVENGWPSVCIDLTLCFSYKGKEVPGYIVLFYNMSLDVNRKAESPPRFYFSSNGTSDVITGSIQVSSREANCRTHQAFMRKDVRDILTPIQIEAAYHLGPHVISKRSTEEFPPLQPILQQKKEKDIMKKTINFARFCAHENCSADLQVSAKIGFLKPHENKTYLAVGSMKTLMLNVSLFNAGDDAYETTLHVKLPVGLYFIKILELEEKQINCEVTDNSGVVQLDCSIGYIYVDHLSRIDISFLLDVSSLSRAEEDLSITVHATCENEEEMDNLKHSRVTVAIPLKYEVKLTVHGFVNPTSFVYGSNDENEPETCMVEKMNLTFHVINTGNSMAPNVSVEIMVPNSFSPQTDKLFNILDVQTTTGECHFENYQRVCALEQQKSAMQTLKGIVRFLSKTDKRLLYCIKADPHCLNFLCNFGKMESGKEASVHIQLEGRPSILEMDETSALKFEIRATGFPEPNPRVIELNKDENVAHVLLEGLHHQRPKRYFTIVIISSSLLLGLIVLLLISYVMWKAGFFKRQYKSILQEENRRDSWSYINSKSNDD
T2 sequence (P26010 20-798): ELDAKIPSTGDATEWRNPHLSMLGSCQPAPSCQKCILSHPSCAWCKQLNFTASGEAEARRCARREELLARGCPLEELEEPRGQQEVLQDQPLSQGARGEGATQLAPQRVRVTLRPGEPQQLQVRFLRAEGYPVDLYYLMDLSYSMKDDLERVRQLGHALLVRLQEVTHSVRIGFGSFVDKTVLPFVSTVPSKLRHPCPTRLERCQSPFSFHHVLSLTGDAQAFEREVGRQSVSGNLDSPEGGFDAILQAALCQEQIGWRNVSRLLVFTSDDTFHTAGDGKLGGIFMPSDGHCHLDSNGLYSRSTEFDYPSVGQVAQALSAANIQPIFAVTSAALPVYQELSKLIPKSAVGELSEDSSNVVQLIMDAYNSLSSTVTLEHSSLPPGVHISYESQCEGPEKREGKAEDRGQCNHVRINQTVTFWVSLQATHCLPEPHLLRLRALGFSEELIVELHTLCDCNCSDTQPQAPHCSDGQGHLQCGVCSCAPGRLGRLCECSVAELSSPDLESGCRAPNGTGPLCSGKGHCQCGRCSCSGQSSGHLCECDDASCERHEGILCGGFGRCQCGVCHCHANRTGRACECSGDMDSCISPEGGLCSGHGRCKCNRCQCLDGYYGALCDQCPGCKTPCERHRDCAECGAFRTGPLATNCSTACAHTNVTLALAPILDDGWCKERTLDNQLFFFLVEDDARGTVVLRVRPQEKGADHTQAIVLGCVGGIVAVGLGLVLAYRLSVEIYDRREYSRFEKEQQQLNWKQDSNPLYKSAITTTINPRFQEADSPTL
Method: α4β7-K562 Cell Adhesion Assay (α4β7 Mediated Adhesion/VCAM-1)
as §1, with “A stable cell line of K562 cells expressing human α4β7,” for “Ramos cells,”

[1] = Table I, racemic mixtures and resolved (S,S) and (R,S) diastereomers, read-out: Antagonist IC50 Activity α4β1
[2] = Table III, read-out: Inhibition of Binding of Ramos Cells to Immobilized VCAM-1 IC50
[3] = Table I, racemic mixtures and resolved (S,S) and (R,S) diastereomers, read-out: Antagonist IC50 Activity α4β7
[4] = Table IV, read-out: Inhibition of Binding of K562 Cells to Immobilized VCAM-1 IC50
[5] = Table IV, μM, read-out: Inhibition of Binding of K562 Cells to Immobilized VCAM-1 IC50

T1 sequence (P05556 21-798, one chain of several): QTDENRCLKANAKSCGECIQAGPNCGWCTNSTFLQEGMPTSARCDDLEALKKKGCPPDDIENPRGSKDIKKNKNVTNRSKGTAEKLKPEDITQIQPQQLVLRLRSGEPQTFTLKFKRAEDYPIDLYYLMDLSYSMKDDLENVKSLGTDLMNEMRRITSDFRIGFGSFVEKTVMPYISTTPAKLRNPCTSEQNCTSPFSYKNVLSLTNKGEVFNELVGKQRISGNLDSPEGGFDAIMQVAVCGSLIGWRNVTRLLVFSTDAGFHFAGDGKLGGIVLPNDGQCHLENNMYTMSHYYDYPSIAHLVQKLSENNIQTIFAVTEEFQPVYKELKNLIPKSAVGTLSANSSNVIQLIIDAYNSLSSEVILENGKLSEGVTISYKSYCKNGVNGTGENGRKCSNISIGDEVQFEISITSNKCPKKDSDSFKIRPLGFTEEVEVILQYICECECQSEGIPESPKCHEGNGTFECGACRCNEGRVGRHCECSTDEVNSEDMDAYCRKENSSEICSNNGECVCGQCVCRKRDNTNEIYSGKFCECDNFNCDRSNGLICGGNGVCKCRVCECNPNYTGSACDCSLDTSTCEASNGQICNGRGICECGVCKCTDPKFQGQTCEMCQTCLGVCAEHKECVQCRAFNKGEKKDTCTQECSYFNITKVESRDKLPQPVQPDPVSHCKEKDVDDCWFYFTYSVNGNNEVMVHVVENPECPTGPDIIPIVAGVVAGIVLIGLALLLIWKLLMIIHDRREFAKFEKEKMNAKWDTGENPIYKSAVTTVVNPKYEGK

IC50 (α4β1 integrin receptor; [1]) [nM]	IC50 (α4β1 integrin receptor; [2]) [nM]	IC50 (human α4β7; [3]) [µM]	IC50 (human α4β7; [4]) [µM]	IC50 (human α4β7; [5]) [µM]	Compound
222	222	0.421			O=C(Nc1ccc(C[C@H](NC(=O)[C@H]2C3CCC(CC3)N2S(=O)(=O)c2ccccc2)C(=O)O)cc1)c1c(Cl)cccc1Cl [Cpd 6b, 4-[(2,6-dichlorobenzoyl)amino]-N-[[(3R)-2-(phenylsulfonyl)-2-azabicyclo[2.2.2]oct-3-yl]carbonyl]-L-phenylalanine]
	81		0.343		COc1cccc(OC)c1-c1ccc(C[C@H](NC(=O)[C@@H]2C3CCC(CC3)N2S(=O)(=O)c2ccccc2)C(=O)O)cc1 [Cpd 8, 4-(2,6-dimethoxyphenyl)-N-[[(3S)-2-(phenylsulfonyl)-2-azabicyclo[2.2.2]oct-3-yl]carbonyl]-L-phenylalanine]
	267			> 5	Cc1ccc(S(=O)(=O)N2C3CCC(CC3)C2C(=O)N[C@@H](Cc2ccc(NC(=O)c3ccccc3C)cc2)C(=O)O)cc1 (stereo partly drawn) [Cpd 9, 4-[(2-methylbenzoyl)amino]-N-[[2-[(4-methylphenyl)sulfonyl]-2-azabicyclo[2.2.2]oct-3-yl]carbonyl]-(α^1S)-phenylalanine]
	145		4.41		Cc1ccc(S(=O)(=O)N2C3CCC(CC3)C2C(=O)N[C@@H](Cc2ccc(NC(=O)c3ccccc3Cl)cc2)C(=O)O)cc1 (stereo partly drawn) [Cpd 10, 4-[(2-chlorobenzoyl)amino]-N-[[2-[(4-methylphenyl)sulfonyl]-2-azabicyclo[2.2.2]oct-3-yl]carbonyl]-L-phenylalanine]
	179		1.49		Cc1ccc(S(=O)(=O)N2C3CCC(CC3)C2C(=O)N[C@@H](Cc2ccc(NC(=O)c3c(F)cccc3F)cc2)C(=O)O)cc1 (stereo partly drawn) [Cpd 11, 4-[(2,6-difluorobenzoyl)amino]-N-[[2-[(4-methylphenyl)sulfonyl]-2-azabicyclo[2.2.2]oct-3-yl]carbonyl]-L-phenylalanine]
	104		1.08		Cc1ccc(S(=O)(=O)N2C3CCC(CC3)C2C(=O)N[C@@H](Cc2ccc(NC(=O)c3ccccc3C(F)(F)F)cc2)C(=O)O)cc1 (stereo partly drawn) [Cpd 12, 4-[[2-(trifluoromethyl)benzoyl]amino]-N-[[2-[(4-methylphenyl)sulfonyl]-2-azabicyclo[2.2.2]oct-3-yl]carbonyl]-L-phenylalanine]
	119			> 10	Cc1ccc(S(=O)(=O)N2C3CCC(CC3)C2C(=O)N[C@@H](Cc2ccc(NC(=O)c3ccccc3OC(F)(F)F)cc2)C(=O)O)cc1 (some centres unmarked) [Cpd 13]
	160		0.913		Cc1ccc(S(=O)(=O)N2C3CCC(CC3)C2C(=O)N[C@@H](Cc2ccc(NC(=O)c3ccccc3Br)cc2)C(=O)O)cc1 (stereo partly drawn) [Cpd 14, 4-[(2-bromobenzoyl)amino]-N-[[2-[(4-methylphenyl)sulfonyl]-2-azabicyclo[2.2.2]oct-3-yl]carbonyl]-L-phenylalanine]
	67		1.39		O=C(Nc1ccc(C[C@H](NC(=O)C2C3CCC(CC3)N2S(=O)(=O)c2ccccc2)C(=O)O)cc1)c1c(F)cccc1F (stereo partly drawn) [Cpd 15, 4-[(2,6-difluorobenzoyl)amino]-N-[[2-(phenylsulfonyl)-2-azabicyclo[2.2.2]oct-3-yl]carbonyl]-L-phenylalanine]
153	153	2.09			O=C(Nc1ccc(C[C@H](NC(=O)[C@@H]2C3CCC(C3)N2S(=O)(=O)c2ccccc2)C(=O)O)cc1)c1c(Cl)cccc1Cl (stereo partly drawn) [Cpd 16a, 4-[(2,6-dichlorobenzoyl)amino]-N-[[(3S)-2-(phenylsulfonyl)-2-azabicyclo[2.2.1]hept-3-yl]carbonyl]-L-phenylalanine]
240	240	0.393			O=C(Nc1ccc(C[C@H](NC(=O)[C@H]2C3CCC(C3)N2S(=O)(=O)c2ccccc2)C(=O)O)cc1)c1c(Cl)cccc1Cl (stereo partly drawn) [Cpd 16b, 4-[(2,6-dichlorobenzoyl)amino]-N-[[(3R)-2-(phenylsulfonyl)-2-azabicyclo[2.2.1]hept-3-yl]carbonyl]-L-phenylalanine]
857	857	9			COc1cccc(OC)c1-c1ccc(C[C@H](NC(=O)[C@H]2C3CCC(CC3)N2S(=O)(=O)c2ccc(C)cc2)C(=O)O)cc1 [Cpd 18a, 4-(2,6-dimethoxyphenyl)-N-[[(3R)-2-[(4-methylphenyl)sulfonyl]-2-azabicyclo[2.2.2]oct-3-yl]carbonyl]-L-phenylalanine]
300	300	3.82			COc1cccc(OC)c1C(=O)Nc1ccc(C[C@H](NC(=O)[C@@H]2C3CCC(C3)N2S(=O)(=O)c2ccccc2)C(=O)O)cc1 (stereo partly drawn) [Cpd 19a, 4-[(2,6-dimethoxybenzoyl)amino]-N-[[(3S)-2-(phenylsulfonyl)-2-azabicyclo[2.2.1]hept-3-yl]carbonyl]-L-phenylalanine]
1210	1210	3.22			COc1cccc(OC)c1C(=O)Nc1ccc(C[C@H](NC(=O)[C@H]2C3CCC(C3)N2S(=O)(=O)c2ccccc2)C(=O)O)cc1 (stereo partly drawn) [Cpd 19b, 4-[(2,6-dimethoxybenzoyl)amino]-N-[[(3R)-2-(phenylsulfonyl)-2-azabicyclo[2.2.1]hept-3-yl]carbonyl]-L-phenylalanine]
	1420			> 10	Cc1ccc(S(=O)(=O)N2C3CCC(CC3)C2C(=O)N[C@@H](Cc2ccc(C#Cc3ccc(C(C)(C)C)cc3)cc2)C(=O)O)cc1 (stereo partly drawn) [Cpd 23, 4-[[4-(1,1-dimethylethyl)phenyl]ethynyl]-N-[[2-[(4-methylphenyl)sulfonyl]-2-azabicyclo[2.2.2]oct-3-yl]carbonyl]-L-phenylalanine]
	1100			> 10	Cc1ccc(S(=O)(=O)N2C3CCC(CC3)C2C(=O)N[C@@H](Cc2ccc(C#Cc3ccccc3)cc2)C(=O)O)cc1 (stereo partly drawn) [Cpd 24, 4-(phenylethynyl)-N-[[2-[(4-methylphenyl)sulfonyl]-2-azabicyclo[2.2.2]oct-3-yl]carbonyl]-L-phenylalanine]
